Results published in patent US10836769B2, “Substituted pyrrolizine compounds and uses thereof” (Gilead Sciences, Inc., priority 2018, dated 2020).
pEC50: −log10 of the molar value. Converted amounts (≈) assume the structure as drawn. Where two headings read alike, the source gives them in different places.

Legend:
[1] = system: HBV; assay: HBV DNA Quantification Assay; assay type: cell-based; settings: Hepatitis B virus
Procedure: A HepG2 cell line overexpressing the HBV virus attachment receptor sodium-taurocholate cotransporting polypeptide (NTCP) was grown to confluency in DMEM growth medium, Dulbecco's Modified Eagle Medium without sodium pyruvate (Life Technologies, Rockville, Md.) supplemented with 10% FBS (Thermo Scientific, Waltham, Md.), 1% penicillin/streptomycin (Life Technologies, Rockville, Md.) and 2 mM L-glutamine (Life Technologies, Rockville, Md.) in T175 flasks. Cells were infected with HBV AD38 viral particles (Texcell, Frederick, USA) at 4000 genome equivalents per cell. After allowing viral infection to take place for 4 days, the infected cells were harvested from the flasks by trypsinization, washed twice with OptiMEM (Life Technologies, Rockville, Md.) and re-suspended in DMEM containing 2% FBS and 1% DMSO at a density of 0.25E6 cells/ml. Infected cells were seeded on 384 well collagen coated plates (Greiner, Austria) at a density of 20,000 cells/well containing serially diluted compounds of the present disclosure or DMSO (0.5%) in a final volume of 80 μl. The assay plates were incubated for a period of 5 days and the antiviral activity of the test compounds were assayed by detecting the presence of HBV DNA in the culture supernatant using the QuantiGene™ 2.0 nucleic acid quantification kit (Affymetrix, Santa Clara, Calif.).
The culture supernatant was harvested and treated with lysis buffer containing Proteinase K (Affymetrix, Santa Clara, Calif.). The supernatant was incubated with HBV viral DNA specific probes (Affymetrix, Santa Clara, Calif.) for 30 minutes at 55° C. This was followed by addition of 0.2M NaOH for 30 minutes at room temperature to denature the DNA, followed by addition of Neutralization buffer (Affymetrix, Santa Clara, Calif.). The resulting lysed and neutralized supernatant was then added to QuantiGene™ 2.0 384 well plates coated with capture oligonucleotides and incubated overnight at 55° C. The HBV specific probe set consists of Capture Extender oligonucleotides (CE's) and blocking probes. Following the overnight incubation, the wells were incubated for one hour sequentially with a Pre-Amplifier, Amplifier and Labeled probes conjugated to alkaline phosphatase with a wash step between incubations. After the final wash step, the alkaline phosphatase substrate (Luminol APS5) was added and the resulting luminescence signal was read in an EnVision Multilabel Plate Reader (PerkinElmer, Santa Clara, Calif.). The EC50 values were calculated from the fit of the dose-response curves to a four-parameter equation. All EC50 values represent geometric mean values of a minimum of four determinations.

[2] = Kinetic Solubility; assay type: physicochemical; settings: kinetic from dmso stock, 0.2 to 100 μM, BD Gentest Solubility Scanner
Procedure: The 10 mM DMSO stock solution of the test compound is serially diluted into a 96-well “DMSO stock dilution plate”. Then Pipette 2 μL from the DMSO stock dilution plate into the “Sample plate” and dilute with 198 µL of the assay media to generate the final concentrations of the test compound ranging from 0.2 to 100 μM. The “Sample plate” is run on a BD Gentest Solubility Scanner.

[3] = 120 h, HepG2 cell line overexpressing NTCP infected with HBV AD38 viral particles, HBV DNA in culture supernatant after 5 days, geometric mean of a minimum of four determinations, read-out: EC50
[4] = aqueous buffer, pH = 7, read-out: Kinetic Solubility at pH = 7
[5] = simulated gastric fluid, pH = 1, read-out: Kinetic Solubility at pH = 1
[6] = assay media at pH 1 (composition not named), simulated gastric fluid, pH = 1, read-out: Kinetic Solubility at pH = 1
[7] = assay media at pH 7 (composition not named), aqueous buffer, pH = 7, read-out: Kinetic Solubility at pH = 7

Structure (SMILES): Cc1c(C(=O)Nc2ccc(F)c(F)c2)c2n(c1C(=O)C(=O)NC1(c3cnn[nH]3)CC(F)(F)C1)[C@H]1C[C@H]1C2 [Example 23, (1aS,6aS)-3-(2-((3,3-difluoro-1-(1H-1,2,3-triazol-5-yl)cyclobutyl)amino)-2-oxoacetyl)-N-(3,4-difluorophenyl)-4-methyl-1,1a,6,6a-tetrahydrocyclopropa[a]pyrrolizine-5-carboxamide]
- pEC50 [1, 3]: 7.50
- solubility kinetic [2, 4]: 49.4 µM (≈ 25.5 µg/mL)
- solubility kinetic [2, 5]: 62 µM (≈ 32 µg/mL)

Structure (SMILES): CNC(=O)C1(NC(=O)C(=O)c2c(C)c(C(=O)Nc3ccc(F)c(F)c3)c3n2[C@H]2C[C@H]2C3)CC(F)(F)C1 [Example 24]
- pEC50 [1, 3]: 6.75
- solubility kinetic [2, 4]: 87.1 µM (≈ 44.1 µg/mL)
- solubility kinetic [2, 5]: 99.4 µM (≈ 50.3 µg/mL)

Structure (SMILES): Cc1c(C(=O)Nc2ccc(F)c(F)c2)c2n(c1C(=O)C(=O)NC1(c3cnn[nH]3)CC(F)(F)C1)C[C@H]1C[C@@H]21 [Example 25, (1aS,6bR)-4-(2-((3,3-difluoro-1-(1H-1,2,3-triazol-5-yl)cyclobutyl)amino)-2-oxoacetyl)-N-(3,4-difluorophenyl)-5-methyl-1,1a,2,6b-tetrahydrocyclopropa[a]pyrrolizine-6-carboxamide]
- pEC50 [1, 3]: 8.72
- solubility kinetic [2, 4]: 65 µM (≈ 33.6 µg/mL)
- solubility kinetic [2, 5]: 72.6 µM (≈ 37.5 µg/mL)

Structure (SMILES): CNC(=O)C1(NC(=O)C(=O)c2c(C)c(C(=O)Nc3ccc(F)c(F)c3)c3n2C[C@H]2C[C@@H]32)CC(F)(F)C1 [Example 26, (1aS,6bR)-4-(2-((3,3-difluoro-1-(methylcarbamoyl)cyclobutyl)amino)-2-oxoacetyl)-N-(3,4-difluorophenyl)-5-methyl-1,1a,2,6b-tetrahydrocyclopropa[a]pyrrolizine-6-carboxamide]
- pEC50 [1, 3]: 7.69
- solubility kinetic [2, 4]: > 100 µM
- solubility kinetic [2, 5]: > 100 µM

Structure (SMILES): Cc1c(C(=O)Nc2ccc(F)c(C(F)F)c2)c2n(c1C(=O)C(=O)NC1(c3c[nH]nn3)CC1)CCC2 [Example 27, 5-(2-((1-(1H-1,2,3-triazol-4-yl)cyclopropyl)amino)-2-oxoacetyl)-N-(3-(difluoromethyl)-4-fluorophenyl)-6-methyl-2,3-dihydro-1H-pyrrolizine-7-carboxamide]
- pEC50 [1, 3]: 7.64
- solubility kinetic [2, 4]: 2.7 µM (≈ 1.31 µg/mL)
- solubility kinetic [2, 5]: 8.4 µM (≈ 4.09 µg/mL)

Structure (SMILES): CNC(=O)C1(NC(=O)C(=O)c2c(C)c(C(=O)Nc3ccc(F)c(C#N)c3)c3n2CCC3)CC(F)(F)C1 [Example 28, N-(3-cyano-4-fluorophenyl)-5-(2-((3,3-difluoro-1-(methylcarbamoyl)cyclobutyl)amino)-2-oxoacetyl)-6-methyl-2,3-dihydro-1H-pyrrolizine-7-carboxamide]
- pEC50 [1, 3]: 6.53
- solubility kinetic [2, 4]: 25.3 µM (≈ 12.7 µg/mL)
- solubility kinetic [2, 5]: 55.7 µM (≈ 27.9 µg/mL)

Structure (SMILES): Cc1c(C(=O)Nc2cc(F)c(F)c(F)c2)c2n(c1C(=O)C(=O)NC1(c3nncs3)CC1)CCC2 [Example 29, 5-(2-((1-(1,3,4-thiadiazol-2-yl)cyclopropyl)amino)-2-oxoacetyl)-6-methyl-N-(3,4,5-trifluorophenyl)-2,3-dihydro-1H-pyrrolizine-7-carboxamide]
- pEC50 [1, 3]: 7.84
- solubility kinetic [2, 4]: 4.5 µM (≈ 2.2 µg/mL)
- solubility kinetic [2, 5]: 88.7 µM (≈ 43.4 µg/mL)

Structure (SMILES): Cc1c(C(=O)Nc2ccc(F)cc2)c2n(c1C(=O)C(=O)NC1(c3nncs3)CC1)CCC2 [Example 30, 5-(2-((1-(1,3,4-thiadiazol-2-yl)cyclopropyl)amino)-2-oxoacetyl)-N-(4-fluorophenyl)-6-methyl-2,3-dihydro-1H-pyrrolizine-7-carboxamide]
- pEC50 [1, 3]: 7.51
- solubility kinetic [2, 4]: 13 µM (≈ 5.9 µg/mL)
- solubility kinetic [2, 5]: > 100 µM

Structure (SMILES): Cc1c(C(=O)Nc2ccc(F)c(C(F)F)c2)c2n(c1C(=O)C(=O)NC1(c3nncs3)CC1)CCC2 [Example 31]
- pEC50 [1, 3]: 7.78
- solubility kinetic [2, 4]: 6.3 µM (≈ 3.17 µg/mL)
- solubility kinetic [2, 5]: 23.1 µM (≈ 11.6 µg/mL)

Structure (SMILES): Cc1c(C(=O)Nc2ccc(F)c(C(F)F)c2)c2n(c1C(=O)C(=O)NC1(C(N)=O)CC(F)(F)C1)CCC2 [Example 32, 5-(2-((1-carbamoyl-3,3-difluorocyclobutyl)amino)-2-oxoacetyl)-N-(3-(difluoromethyl)-4-fluorophenyl)-6-methyl-2-dihydro-1H-pyrrolizine-7-carboxamide]
- pEC50 [1, 3]: 7.62
- solubility kinetic [2, 4]: 89.5 µM (≈ 45.9 µg/mL)
- solubility kinetic [2, 5]: 93.1 µM (≈ 47.7 µg/mL)

Structure (SMILES): CNC(=O)C1(NC(=O)C(=O)c2c(C)c(C(=O)Nc3ccc(F)c(F)c3)c3n2[C@@H]2C[C@@H]2C3)CC(F)(F)C1 [Example 33]
- pEC50 [1, 3]: 7.03
- solubility kinetic [2, 4]: 92.3 µM (≈ 46.7 µg/mL)
- solubility kinetic [2, 5]: 92.1 µM (≈ 46.6 µg/mL)

Structure (SMILES): Cc1c(C(=O)Nc2ccc(F)c(F)c2)c2n(c1C(=O)C(=O)NC1(c3cnn[nH]3)CC(F)(F)C1)[C@@H]1C[C@@H]1C2 [Example 34, (1aR,6aR)-3-(2-((3,3-difluoro-1-(1H-1,2,3-triazol-5-yl)cyclobutyl)amino)-2-oxoacetyl)-N-(3,4-difluorophenyl)-4-methyl-1,1a,6,6a-tetrahydrocyclopropa[a]pyrrolizine-5-carboxamide]
- pEC50 [1, 3]: 7.84
- solubility kinetic [2, 6]: 51.7 µM (≈ 26.7 µg/mL)
- solubility kinetic [2, 7]: 52.3 µM (≈ 27 µg/mL)

Structure (SMILES): CNC(=O)C1(NC(=O)C(=O)c2c(C)c(C(=O)Nc3ccc(F)c(Cl)c3)c3n2CCC3)CC(F)(F)C1 [Example 35]
- pEC50 [1, 3]: 7.85
- solubility kinetic [2, 4]: 3.4 µM (≈ 1.74 µg/mL)
- solubility kinetic [2, 5]: 9.1 µM (≈ 4.65 µg/mL)

Structure (SMILES): Cc1c(C(=O)Nc2ccc(F)c(F)c2)c2n(c1C(=O)C(=O)NC1(c3c[nH]nn3)COC1)CCC2 [Example 36, 5-(2-((3-(1H-1,2,3-triazol-4-v)oxetan-3-yl)amino)-2-oxoacetyl)-N-(3,4-difluorophenyl)-6-methyl-2,3-dihydro-1H-pyrrolizine-7-carboxamide]
- pEC50 ([1]; HepG2, 120 h): 7.67
- solubility kinetic [2, 6]: 63 µM (≈ 29.6 µg/mL)
- solubility kinetic [2, 7]: 59.9 µM (≈ 28.2 µg/mL)

Structure (SMILES): Cc1c(C(=O)Nc2ccc(F)c(C(F)F)c2)c2n(c1C(=O)C(=O)NC1(c3c[nH]nn3)CC(F)(F)C1)CCC2 [Example 37, 5-(2-((3,3-Difluoro-1-(1H-1,2,3-triazol-4-yl)cyclobutyl)amino)-2-oxoacetyl)-N-(3-(difluoromethyl)-4-fluorophenyl)-6-methyl-2,3-dihydro-1H-pyrrolizine-7-carboxamide]
- pEC50 [1, 3]: 8.44
- solubility kinetic [2, 4]: 5.2 µM (≈ 2.79 µg/mL)
- solubility kinetic [2, 5]: 7.1 µM (≈ 3.81 µg/mL)

Structure (SMILES): CNC(=O)C1(NC(=O)C(=O)c2c(C)c(C(=O)Nc3ccc(F)c(F)c3)c3n2CCC3)COC1 [Example 38, N-(3,4-difluorophenyl)-6-methyl-5-(2-((3-(methylcarbamoyl)oxetan-3-yl)amino)-2-oxoacetyl)-2,3-dihydro-1H-pyrrolizine-7-carboxamide]
- pEC50 [1, 3]: 7.06
- solubility kinetic [2, 4]: 86.7 µM (≈ 39.9 µg/mL)
- solubility kinetic [2, 5]: 88.7 µM (≈ 40.8 µg/mL)

Structure (SMILES): Cc1c(C(=O)Nc2ccc(F)c(F)c2)c2n(c1C(=O)C(=O)NC1(c3c[nH]nn3)CC(F)(F)C1)CCC2 [Example 39]
- pEC50 [1, 3]: 8.54
- solubility kinetic [2, 4]: 66.8 µM (≈ 33.7 µg/mL)
- solubility kinetic [2, 5]: 66 µM (≈ 33.3 µg/mL)

Structure (SMILES): Cc1c(C(=O)Nc2ccc(F)c(F)c2)c2n(c1C(=O)C(=O)NC1(c3c[nH]nn3)CC1)CCC2 [Example 40, 5-(2-((1-(1H-1,2,3-triazol-4-yl)cyclopropyl)amino)-2-oxoacetyl)-N-(3,4-difluorophenyl)-6-methyl-2,3-dihydro-1H-pyrrolizine-7-carboxamide]
- pEC50 [1, 3]: 7.83
- solubility kinetic [2, 4]: 2.9 µM (≈ 1.32 µg/mL)
- solubility kinetic [2, 5]: 4.9 µM (≈ 2.23 µg/mL)

Structure (SMILES): CNC(=O)C1(NC(=O)C(=O)c2c(C)c(C(=O)Nc3ccc(F)c(C(F)F)c3)c3n2CCC3)CC(F)(F)C1 [Example 41]
- pEC50 [1, 3]: 7.68
- solubility kinetic [2, 4]: > 100 µM
- solubility kinetic [2, 5]: > 100 µM
